Assay [1] concerns fibrinogen-mediated platelet aggregation. In words: Aggregometry assay of free peptides in platelet-rich plasma. The format is cell-based, human. As to the method: Affinity of free lRGD and cRGD peptides to bind activated platelets was characterized by ‘half maximal Inhibitory Concentration’ (IC50) value, which, in our assays, was the concentration of peptide required to inhibit fibrinogen-mediated platelet aggregation in platelet-rich plasma (PRP) by 50%, in an aggregometry (Bio/Data, PAP-4) set-up. PRP was prepared from citrated human whole blood by centrifugation at 800 RPM for 15 min at 25° C. 50 μl aliquots of PRP were warmed to 37° C. for 2 minutes, incubated with various concentrations of lRGD and cRGD peptide in the presence of agonist adenosine di-phosphate (ADP, 10 μM) and the maximal aggregation percentage was determined while stifling for 15 min. Consequently, from the maximal aggregation percentage and comparison to aggregation without peptides, inhibition percentage was determined.

A further assay addresses GPIIb-IIIa (αIIbβ3) (Homo sapiens, UniProt P05106+P08514). Conditions: reported in literature; cited from earlier work.

Sequence of GPIIb-IIIa (αIIbβ3) (P08514 32-887 limits assumed): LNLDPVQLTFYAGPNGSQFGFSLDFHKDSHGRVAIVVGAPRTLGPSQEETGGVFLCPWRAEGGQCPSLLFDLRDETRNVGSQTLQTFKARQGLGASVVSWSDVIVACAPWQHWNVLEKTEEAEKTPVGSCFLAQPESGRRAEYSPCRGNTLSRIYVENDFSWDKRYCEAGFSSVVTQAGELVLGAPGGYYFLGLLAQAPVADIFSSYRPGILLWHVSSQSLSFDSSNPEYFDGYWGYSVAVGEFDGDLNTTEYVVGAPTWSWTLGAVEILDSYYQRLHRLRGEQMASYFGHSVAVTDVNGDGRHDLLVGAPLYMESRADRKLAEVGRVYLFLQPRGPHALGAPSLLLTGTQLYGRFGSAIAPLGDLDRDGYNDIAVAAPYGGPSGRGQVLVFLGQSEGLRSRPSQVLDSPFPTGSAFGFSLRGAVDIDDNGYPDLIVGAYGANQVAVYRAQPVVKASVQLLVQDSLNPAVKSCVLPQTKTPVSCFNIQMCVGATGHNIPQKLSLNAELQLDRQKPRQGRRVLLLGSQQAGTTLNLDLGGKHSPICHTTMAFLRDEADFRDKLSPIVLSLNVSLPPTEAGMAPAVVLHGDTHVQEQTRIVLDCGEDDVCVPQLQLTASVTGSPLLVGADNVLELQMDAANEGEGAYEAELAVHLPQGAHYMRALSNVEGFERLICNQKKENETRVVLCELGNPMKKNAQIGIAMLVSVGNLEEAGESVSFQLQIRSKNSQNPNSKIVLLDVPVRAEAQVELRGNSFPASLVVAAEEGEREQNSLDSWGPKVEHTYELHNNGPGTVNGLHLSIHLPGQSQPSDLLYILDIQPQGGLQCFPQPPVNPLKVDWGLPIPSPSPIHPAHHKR
Sequence of GPIIb-IIIa (αIIbβ3) (P08514 891-1039 partner limits assumed): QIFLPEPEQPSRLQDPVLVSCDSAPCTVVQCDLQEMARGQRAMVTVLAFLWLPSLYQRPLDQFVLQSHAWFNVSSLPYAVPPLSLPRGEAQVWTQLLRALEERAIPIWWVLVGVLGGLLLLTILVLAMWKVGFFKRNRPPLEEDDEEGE
Sequence of GPIIb-IIIa (αIIbβ3) (P05106 27-788): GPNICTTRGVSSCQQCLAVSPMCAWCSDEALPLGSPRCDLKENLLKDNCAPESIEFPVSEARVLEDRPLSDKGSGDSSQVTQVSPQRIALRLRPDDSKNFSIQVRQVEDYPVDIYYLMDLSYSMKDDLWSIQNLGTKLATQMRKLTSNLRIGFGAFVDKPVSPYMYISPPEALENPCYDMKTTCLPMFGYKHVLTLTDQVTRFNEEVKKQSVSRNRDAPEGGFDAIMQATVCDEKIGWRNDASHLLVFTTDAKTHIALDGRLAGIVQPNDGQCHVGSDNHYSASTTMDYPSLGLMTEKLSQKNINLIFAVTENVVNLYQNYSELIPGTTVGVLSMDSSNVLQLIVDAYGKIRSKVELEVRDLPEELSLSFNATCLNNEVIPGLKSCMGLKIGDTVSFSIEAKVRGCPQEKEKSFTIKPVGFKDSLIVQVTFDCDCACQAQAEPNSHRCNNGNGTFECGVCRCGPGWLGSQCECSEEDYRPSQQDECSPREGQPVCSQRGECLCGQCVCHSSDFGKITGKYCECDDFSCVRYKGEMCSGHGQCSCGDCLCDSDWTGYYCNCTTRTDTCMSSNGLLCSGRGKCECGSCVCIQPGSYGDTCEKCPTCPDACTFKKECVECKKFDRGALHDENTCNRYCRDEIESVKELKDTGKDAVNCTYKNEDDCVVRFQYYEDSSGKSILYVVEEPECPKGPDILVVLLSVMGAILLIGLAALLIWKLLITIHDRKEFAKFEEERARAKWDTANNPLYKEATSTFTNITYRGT

With cyclo-CNPRGDY(-OEt)RC [cRGD], the “IC50 by aggregometry, lower compared to lRGD” value in assay [1] (FIG. 18 legend) is reported as ~2 orders of magnitude. In addition, the “IC50 (inhibition of platelet aggregation) relative to lRGD” value in assay [1] (PRP, ADP 10 μM, 37° C.) is listed as “about 1000 times lower”. In addition, the “affinity and selectivity for GPIIb-IIIa compared with αvβ3, αvβ5 and α5β1” value on GPIIb-IIIa (αIIbβ3) was “high affinity and selectivity for GPIIb-IIIa”.

The record behind these values is patent US9833518B2, “Heteromultivalent particle compositions” (CASE WESTERN RESERVE UNIVERSITY, priority 2012, dated 2017).
